Reference: ChEMBL document CHEMBL4837183, “Antiproliferative Bufadienolides from the Bulbs of Drimia altissima” (2021)

Columns and labels:
Format in all cases: functional
[1] = tested on: SF-268; test: Growth inhibition of human SF-268 cells measured after 48 hrs by SRB assay
[2] = tested on: SF-295; test: Growth inhibition of human SF-295 cells measured after 48 hrs by SRB assay
[3] = tested on: SF-539; test: Growth inhibition of human SF-539 cells measured after 48 hrs by SRB assay
[4] = tested on: SNB-19; test: Growth inhibition of human SNB-19 cells measured after 48 hrs by SRB assay
[5] = tested on: SNB-75; test: Growth inhibition of human SNB-75 cells measured after 48 hrs by SRB assay
[6] = tested on: U-251; test: Growth inhibition of human U-251 cells measured after 48 hrs by SRB assay
[7] = tested on: A549; test: Growth inhibition of human A549 cells measured after 48 hrs by SRB assay
[8] = tested on: HOP-62; test: Growth inhibition of human HOP-62 cells measured after 48 hrs by SRB assay
[9] = tested on: HOP-92; test: Growth inhibition of human HOP-92 cells measured after 48 hrs by SRB assay
[10] = tested on: NCI-H226; test: Growth inhibition of human NCI-H226 cells measured after 48 hrs by SRB assay
[11] = tested on: NCI-H23; test: Growth inhibition of human NCI-H23 cells measured after 48 hrs by SRB assay
[12] = tested on: NCI-H322M; test: Growth inhibition of human NCI-H322M cells measured after 48 hrs by SRB assay
[13] = tested on: NCI-H460; test: Growth inhibition of human NCI-H460 cells measured after 48 hrs by SRB assay
[14] = tested on: NCI-H522; test: Growth inhibition of human NCI-H522 cells measured after 48 hrs by SRB assay
[15] = tested on: PC-3; test: Growth inhibition of human PC-3 cells measured after 48 hrs by SRB assay
[16] = tested on: DU-145; test: Growth inhibition of human DU-145 cells measured after 48 hrs by SRB assay
[17] = tested on: IGROV-1; test: Growth inhibition of human IGROV-1 cells measured after 48 hrs by SRB assay
[18] = tested on: OVCAR-3; test: Growth inhibition of human OVCAR-3 cells measured after 48 hrs by SRB assay
[19] = tested on: OVCAR-5; test: Growth inhibition of human OVCAR-5 cells measured after 48 hrs by SRB assay
[20] = tested on: OVCAR-8; test: Growth inhibition of human OVCAR-8 cells measured after 48 hrs by SRB assay
[21] = tested on: NCI/ADR-RES; test: Growth inhibition of human NCI/ADR-RES cells measured after 48 hrs by SRB assay
[22] = tested on: SK-OV-3; test: Growth inhibition of human SK-OV-3 cells measured after 48 hrs by SRB assay
[23] = tested on: 786-0; test: Growth inhibition of human 786-0 cells measured after 48 hrs by SRB assay
[24] = tested on: A498; test: Growth inhibition of human A498 cells measured after 48 hrs by SRB assay
[25] = tested on: ACHN; test: Growth inhibition of human ACHN cells measured after 48 hrs by SRB assay
[26] = tested on: CAKI-1; test: Growth inhibition of human CAKI-1 cells measured after 48 hrs by SRB assay
[27] = tested on: RXF 393; test: Growth inhibition of human RXF 393 cells measured after 48 hrs by SRB assay
[28] = tested on: SN12C; test: Growth inhibition of human SN12C cells measured after 48 hrs by SRB assay
[29] = tested on: TK-10; test: Growth inhibition of human TK-10 cells measured after 48 hrs by SRB assay
[30] = tested on: UO-31; test: Growth inhibition of human UO-31 cells measured after 48 hrs by SRB assay
[31] = tested on: CCRF-CEM; test: Growth inhibition of human CCRF-CEM cells measured after 48 hrs by SRB assay
[32] = tested on: HL-60; test: Growth inhibition of human HL-60 cells measured after 48 hrs by SRB assay
[33] = tested on: K562; test: Growth inhibition of human K562 cells measured after 48 hrs by SRB assay
[34] = tested on: MOLT-4; test: Growth inhibition of human MOLT-4 cells measured after 48 hrs by SRB assay
[35] = tested on: SR; test: Growth inhibition of human SR cells measured after 48 hrs by SRB assay
[36] = tested on: COLO 205; test: Growth inhibition of human COLO 205 cells measured after 48 hrs by SRB assay
[37] = tested on: HCC 2998; test: Growth inhibition of human HCC 2998 cells measured after 48 hrs by SRB assay
[38] = tested on: HCT-116; test: Growth inhibition of human HCT-116 cells measured after 48 hrs by SRB assay
[39] = tested on: HCT-15; test: Growth inhibition of human HCT-15 cells measured after 48 hrs by SRB assay
[40] = tested on: HT-29; test: Growth inhibition of human HT-29 cells measured after 48 hrs by SRB assay
[41] = tested on: KM12; test: Growth inhibition of human KM12 cells measured after 48 hrs by SRB assay
[42] = tested on: SW-620; test: Growth inhibition of human SW-620 cells measured after 48 hrs by SRB assay
[43] = tested on: LOX IMVI; test: Growth inhibition of human LOX IMVI cells measured after 48 hrs by SRB assay
[44] = tested on: Malme-3M; test: Growth inhibition of human Malme-3M cells measured after 48 hrs by SRB assay
[45] = tested on: M14; test: Growth inhibition of human M14 cells measured after 48 hrs by SRB assay
[46] = tested on: MDA-MB-435; test: Growth inhibition of human MDA-MB-435 cells measured after 48 hrs by SRB assay
[47] = tested on: SK-MEL-2; test: Growth inhibition of human SK-MEL-2 cells measured after 48 hrs by SRB assay
[48] = tested on: SK-MEL-28; test: Growth inhibition of human SK-MEL-28 cells measured after 48 hrs by SRB assay
[49] = tested on: SK-MEL-5; test: Growth inhibition of human SK-MEL-5 cells measured after 48 hrs by SRB assay
[50] = tested on: UACC-257; test: Growth inhibition of human UACC-257 cells measured after 48 hrs by SRB assay
[51] = tested on: UACC-62; test: Growth inhibition of human UACC-62 cells measured after 48 hrs by SRB assay
[52] = tested on: MCF7; test: Growth inhibition of human MCF7 cells measured after 48 hrs by SRB assay
[53] = tested on: MDA-MB-231; test: Growth inhibition of human MDA-MB-231 cells measured after 48 hrs by SRB assay
[54] = tested on: Hs-578T; test: Growth inhibition of human Hs-578T cells measured after 48 hrs by SRB assay
[55] = tested on: BT-549; test: Growth inhibition of human BT-549 cells measured after 48 hrs by SRB assay
[56] = tested on: T47D; test: Growth inhibition of human T47D cells measured after 48 hrs by SRB assay
[57] = tested on: MDA-MB-468; test: Growth inhibition of human MDA-MB-468 cells measured after 48 hrs by SRB assay

Work on `C[C@]12CC[C@H](O[C@@H]3O[C@H](CO)[C@@H](O)[C@H](O)[C@H]3O)C=C1CC[C@@H]1[C@@H]2[C@@H](O)C[C@]2(C)[C@@H](c3ccc(=O)oc3)CC[C@]12O` yielded a GI50 [1] of 18 nM, a GI50 [2] of 61 nM and a GI50 [3] of 31 nM. It also gave a GI50 [4] of 108 nM, a GI50 [5] of 82 nM and a GI50 [6] of 79 nM. It also gave a GI50 [7] of 15 nM, a GI50 [8] of 26 nM and a GI50 [9] of 66 nM. The GI50 [10] was 47 nM, the GI50 [11] was 27 nM and the GI50 [12] was 30 nM. The GI50 [13] was 13 nM, the GI50 [14] was 9 nM and the GI50 [15] was 46 nM. It also gave a GI50 [16] of 31 nM, a GI50 [17] of 64 nM and a GI50 [18] of 36 nM. For the same molecule, the GI50 [19] was 60 nM, the GI50 [20] was 65 nM and the GI50 [21] was 33 nM. For the same molecule, the GI50 [22] was 74 nM, the GI50 [23] was 38 nM and the GI50 [24] was 38 nM. It also gave a GI50 [25] of 10 nM, a GI50 [26] of 41 nM and a GI50 [27] of 20 nM. The GI50 [28] was 15 nM, the GI50 [29] was 31 nM and the GI50 [30] was 34 nM. For the same molecule, the GI50 [31] was 16 nM, the GI50 [32] was 50 nM and the GI50 [33] was 80 nM. It also gave a GI50 [34] of 11 nM, a GI50 [35] of 55 nM and a GI50 [36] of 102 nM. For the same molecule, the GI50 [37] was 136 nM, the GI50 [38] was 15 nM and the GI50 [39] was 53 nM. The GI50 [40] was 81 nM, the GI50 [41] was 91 nM and the GI50 [42] was 51 nM. For the same molecule, the GI50 [43] was 64 nM, the GI50 [44] was 63 nM and the GI50 [45] was 83 nM. The GI50 [46] was 73 nM, the GI50 [47] was 59 nM and the GI50 [48] was 107 nM. The GI50 [49] was 55 nM, the GI50 [50] was 93 nM and the GI50 [51] was 7 nM. It also gave a GI50 [52] of 42 nM, a GI50 [53] of 193 nM and a GI50 [54] of 25 nM. It also gave a GI50 [55] of 27 nM, a GI50 [56] of 78 nM and a GI50 [57] of 109 nM.

`CC(=O)OC[C@H]1O[C@@H](O[C@@H]2C=C3CC[C@@H]4[C@H]([C@@H](O)C[C@]5(C)[C@@H](c6ccc(=O)oc6)CC[C@]45O)[C@@]3(C)CC2)[C@H](OC(C)=O)[C@@H](OC(C)=O)[C@@H]1OC(C)=O` showed a GI50 [1] of 109 nM, a GI50 [2] of 129 nM and a GI50 [3] of 77 nM. For the same molecule, the GI50 [4] was 421 nM, the GI50 [5] was 302 nM and the GI50 [6] was 295 nM. For the same molecule, the GI50 [7] was 75 nM, the GI50 [8] was 105 nM and the GI50 [9] was 286 nM. The GI50 [10] was 264 nM, the GI50 [11] was 181 nM and the GI50 [12] was 114 nM. For the same molecule, the GI50 [13] was 65 nM, the GI50 [14] was 70 nM and the GI50 [15] was 247 nM. The GI50 [16] was 109 nM, the GI50 [17] was 111 nM and the GI50 [18] was 92 nM. It also gave a GI50 [19] of 381 nM, a GI50 [20] of 246 nM and a GI50 [21] of 283 nM. It also gave a GI50 [22] of 322 nM, a GI50 [23] of 102 nM and a GI50 [24] of 64 nM. For the same molecule, the GI50 [25] was 56 nM, the GI50 [26] was 98 nM and the GI50 [27] was 41 nM. It also gave a GI50 [28] of 65 nM, a GI50 [29] of 128 nM and a GI50 [30] of 92 nM. It also gave a GI50 [31] of 110 nM, a GI50 [32] of 140 nM and a GI50 [33] of 386 nM. For the same molecule, the GI50 [34] was 88 nM, the GI50 [35] was 285 nM and the GI50 [36] was 629 nM. The GI50 [37] was 677 nM, the GI50 [38] was 75 nM and the GI50 [39] was 225 nM. For the same molecule, the GI50 [40] was 321 nM, the GI50 [41] was 597 nM and the GI50 [42] was 114 nM. For the same molecule, the GI50 [43] was 314 nM, the GI50 [44] was 105 nM and the GI50 [45] was 416 nM. The GI50 [46] was 290 nM, the GI50 [47] was 362 nM and the GI50 [48] was 273 nM. The GI50 [49] was 95 nM, the GI50 [50] was 376 nM and the GI50 [51] was 155 nM. The GI50 [52] was 103 nM, the GI50 [53] was 812 nM and the GI50 [54] was 91 nM. For the same molecule, the GI50 [55] was 93 nM, the GI50 [56] was 338 nM and the GI50 [57] was 642 nM.
